Experimental data as given in ChEMBL document CHEMBL6103650, “Hybrid Molecules of Benzothiazole and Hydroxamic Acid as Dual-Acting Biofilm Inhibitors with Antibacterial Synergistic Effect against Pseudomonas aeruginosa Infections” (J Med Chem, 2025).
Calls of active or inactive are those of the source. The calls are words filed in the database; no cut-off is given here.

Key:
Pseudomonas aeruginosa [1] = test: Anti-motility activity against Pseudomonas aeruginosa PAO1 assessed as reduction in pili formation at 0.3125 to 10 uM incubated for 16 hrs by SEM analysis; type: functional, organism-based; settings: dose 0.3125-10 µM
Pseudomonas aeruginosa [2] = test: Antibiofilm activity against Pseudomonas aeruginosa PAO1 assessed as decrease in colony forming counts incubated for 24 hrs by crystal violet staining based analysis; type: functional, organism-based; settings: dose 0.15625-2.5 µM
Pseudomonas aeruginosa [3] = test: Antibiofilm activity against Pseudomonas aeruginosa PA1121 assessed as inhibition of biofilm formation incubated for 24 hrs by crystal violet staining based analysis; type: functional, organism-based
Pseudomonas aeruginosa [4] = test: Antibacterial activity against Pseudomonas aeruginosa PAO1 infected in BALB/c mouse wound infection model assessed as reduction in wound area at 2.5 uM administered to wound once a day for 3 days and measured after 9 days in dropwise manner; type: functional; set-up: scale not given: the % may be the effect or the level left; settings: time 12 day
Pseudomonas aeruginosa [5] = test: Antibiofilm activity against Pseudomonas aeruginosa PAO1 harboring pvds-deficient mutant assessed as inhibition of biofilm formation at 0.3125 to 10 uM incubated for 24 hrs by crystal violet staining based analysis; type: functional, organism-based; settings: dose 0.3125-10 µM
Pseudomonas aeruginosa [6] = test: Antibiofilm activity against Pseudomonas aeruginosa PAO1 overexpressing fpvA assessed as inhibition of biofilm formation at 0.3125 to 10 uM incubated for 24 hrs by crystal violet staining based analysis; type: functional, organism-based; settings: dose 0.3125-10 µM
[7] = Toxicity in BALB/c mouse wound infection model assessed as kidney damage measured for 9 days by H and E staining based analysis; type: tissue-based; settings: in vivo, 216 h, time 9 day
Pseudomonas aeruginosa [8] = test: Antibiofilm activity against Pseudomonas aeruginosa PA108 assessed as inhibition of biofilm formation incubated for 24 hrs by crystal violet staining based analysis; type: functional, organism-based
[9] = Toxicity in zebrafish assessed as survival rate at <100 uM measured upto 120 hrs; set-up: species or system Danio rerio; settings: in vivo
[10] = Inhibition of quorum sensing system in Pseudomonas aeruginosa PAO1-gfp assessed as reduction in fluorescence intensity at 0.3125 to 10 uM measured upto 16 hrs by GFP reporter strain assay; settings: dose 0.3125-10 µM
Pseudomonas aeruginosa [11] = test: Antibiofilm activity against Pseudomonas aeruginosa PAO1 assessed as reduction in pFe(III) content incubated for 24 hrs; type: functional
Pseudomonas aeruginosa [12] = test: Antibiofilm activity against Pseudomonas aeruginosa PAO1 assessed as fold increase in pyochelin level at 10 uM incubated for 2 hrs by fluorescence based analysis; type: functional
Pseudomonas aeruginosa [13] = test: Antibacterial activity against Pseudomonas aeruginosa PAO1 assessed as inhibition of bacterial growth incubated for 24 hrs by serial dilution method; type: functional
[14] = Toxicity in BALB/c mouse assessed as liver damage by H and E staining based analysis; type: tissue-based; settings: in vivo
Pseudomonas aeruginosa [15] = test: Synergistic […] activity against Pseudomonas aeruginosa PAO1 assessed as fractional inhibitory concentration index measured for 20 hrs in presence of ciprofloxacin by microdilution checkboard assay; type: functional
Pseudomonas aeruginosa [16] = test: Antibiofilm activity against Pseudomonas aeruginosa PAO1 assessed as inhibition of biofilm formation incubated for 24 hrs by crystal violet staining based analysis; type: functional, organism-based
Pseudomonas aeruginosa [17] = test: Antibiofilm activity against Pseudomonas aeruginosa PAO1 assessed as fold increase in pyoverdine level at 10 uM incubated for 2 hrs by fluorescence based analysis; type: functional
Pseudomonas aeruginosa [18] = test: Antibacterial activity against Pseudomonas aeruginosa PAO1 infected in BALB/c mouse wound infection model assessed as bacterial survival rate in wound at 2.5 uM administered to wound once a day for 3 days in dropwise manner in presence of tobramycin; type: functional; settings: PAO1, 72 h, time 3 day
RAW264.7 = test: Cytotoxicity against mouse RAW264.7 cells assessed as reduction in cell viability at < 100 uM incubated for 24 hrs by MTT assay; type: toxicity, cell-based; settings: raw264.7, 24 h
[19] = Toxicity in BALB/c mouse wound infection model assessed as lung damage measured for 9 days by H and E staining based analysis; type: tissue-based; settings: in vivo, 216 h, time 9 day
Pseudomonas aeruginosa [20] = test: Antivirulence activity in Pseudomonas aeruginosa PAO1 assessed as reduction in extracellular polysaccharides production incubated for 24 hrs; type: functional, organism-based; settings: dose 0.3125-10 µM
Pseudomonas aeruginosa [21] = test: Synergistic […] activity against Pseudomonas aeruginosa PAO1 assessed as fractional inhibitory concentration index measured for 20 hrs in presence of tobramycin by microdilution checkboard assay; type: functional
Pseudomonas aeruginosa [22] = test: Antibacterial activity against Pseudomonas aeruginosa PAO1 infected in BALB/c mouse wound infection model assessed as bacterial survival rate in wound at 1 mg/mL administered to wound once a day for 3 days in dropwise manner; type: functional; settings: PAO1, 72 h, time 3 day
Pseudomonas aeruginosa [23] = test: Antivirulence activity in Pseudomonas aeruginosa PAO1 assessed as reduction in pyocyanin production incubated for 24 hrs; type: functional, organism-based; settings: dose 10.0 µM
Pseudomonas aeruginosa [24] = test: Anti-motility activity against Pseudomonas aeruginosa PAO1 assessed as reduction in swarming motility incubated for 24 hrs; type: functional, organism-based; settings: dose 0.3125-10 µM
Pseudomonas aeruginosa [25] = test: Antibacterial activity against Pseudomonas aeruginosa PAO1 infected in BALB/c mouse wound infection model measured after 3 days; type: functional, organism-based; settings: time 3.0 day
Pseudomonas aeruginosa [26] = test: Antibiofilm activity against Pseudomonas aeruginosa PAO1 assessed as reduction in pFe(III) content incubated for 24 hrs by cell total iron colorimetric assay; type: functional, organism-based; settings: dose 0.3125-10 µM
Pseudomonas aeruginosa [27] = test: Anti-motility activity against Pseudomonas aeruginosa PAO1 assessed as reduction in swimming motility at 10 uM incubated for 24 hrs relative to control; type: functional; set-up: scale not given: the % may be the effect or the level left
[28] = Toxicity in BALB/c mouse assessed as heart damage by H and E staining based analysis; type: tissue-based; settings: in vivo
[29] = Toxicity in BALB/c mouse wound infection model assessed as heart damage measured for 9 days by H and E staining based analysis; type: tissue-based; settings: in vivo, 216 h, time 9 day
Pseudomonas aeruginosa [30] = test: Antivirulence activity in Pseudomonas aeruginosa PAO1 assessed as reduction in elastase production at 10 uM incubated for 24 hrs relative to control; type: functional; set-up: scale not given: the % may be the effect or the level left
Pseudomonas aeruginosa [31] = test: Antibacterial activity against Pseudomonas aeruginosa PAO1 infected in BALB/c mouse wound infection model assessed as reduction in wound area at 2.5 uM administered to wound once a day for 3 days and measured after 9 days in dropwise manner in presence of ciprofloxacin; type: functional; set-up: scale not given: the % may be the effect or the level left; settings: time 12 day
Pseudomonas aeruginosa [32] = test: Antibacterial activity against Pseudomonas aeruginosa PAO1 infected in BALB/c mouse wound infection model assessed as bacterial survival rate in wound at 2.5 uM administered to wound once a day for 3 days in dropwise manner in presence of ciprofloxacin; type: functional; settings: PAO1, 72 h, time 3 day
[33] = Inhibition of quorum sensing system in Pseudomonas aeruginosa PAO1-lasB-gfp assessed as reduction in fluorescence intensity at 0.3125 to 10 uM measured upto 16 hrs by GFP reporter strain assay; settings: dose 0.3125-10 µM
Pseudomonas aeruginosa [34] = test: Antibiofilm activity against Pseudomonas aeruginosa PAO1 assessed as decrease in biofilm formation incubated for 24 hrs by crystal violet staining based analysis; type: functional, organism-based; settings: dose 0.3125-10 µM
[35] = Toxicity in BALB/c mouse assessed as spleen damage by H and E staining based analysis; type: tissue-based; settings: in vivo
[36] = Hemolytic activity in mouse red blood cells at < 40 uM; type: toxicity, cell-based; settings: erythrocyte
[37] = Hemolytic activity in rabbit red blood cells at < 40 uM; type: toxicity, cell-based, Oryctolagus cuniculus; settings: erythrocyte
[38] = Toxicity in BALB/c mouse wound infection model assessed as change in body weight measured for 9 days; settings: in vivo, 216 h, time 9 day
[39] = Toxicity in BALB/c mouse wound infection model assessed as liver damage measured for 9 days by H and E staining based analysis; type: tissue-based; settings: in vivo, 216 h, time 9 day
Pseudomonas aeruginosa [40] = test: Antibiofilm activity against Pseudomonas aeruginosa PAO1 assessed as inhibition of biofilm formation at 0.15625 to 2.5 uM incubated for 24 hrs by crystal violet staining based analysis; type: functional, organism-based; settings: dose 0.15625-2.5 µM
Pseudomonas aeruginosa [41] = test: Antibiofilm activity against Pseudomonas aeruginosa PAO1 assessed as reduction in iron content at 10 uM incubated for 24 hrs by cell total iron colorimetric assay relative to control; type: functional; set-up: scale not given: the % may be the effect or the level left

COc1ccc2nc(NCC(=O)NCCCCC(=O)NO)sc2c1
Activity (Pseudomonas aeruginosa [1]): Active | Activity (Pseudomonas aeruginosa [2]): Dose-dependent-effect | Activity (Pseudomonas aeruginosa [3]): Active | Activity (Pseudomonas aeruginosa [4]): 55% | Activity (Pseudomonas aeruginosa [5]): No effect | Activity (Pseudomonas aeruginosa [6]): No effect | Activity [7]: Non-toxic | Activity (Pseudomonas aeruginosa [8]): Active | Activity [9]: Non-toxic | inhibition [10]: inactive | Activity (Pseudomonas aeruginosa [11]): 19.61 | fold change (FC) (Pseudomonas aeruginosa [12]): 1.7 | MIC (Pseudomonas aeruginosa [13]): > 256 µM | Activity [14]: Non-toxic | fractional inhibitory concentration index (FICI) (Pseudomonas aeruginosa [15]): 0.25 | Activity (Pseudomonas aeruginosa [16]): Dose-dependent-effect | IC50 (Pseudomonas aeruginosa [16]; PAO1, 24 h): 400 nM | fold change (FC) (Pseudomonas aeruginosa [17]): 3.4 | survival at 2.5 µM (Pseudomonas aeruginosa [18]): 0.97% | Activity (RAW264.7): Non-toxic | Activity [19]: Non-toxic | Activity (Pseudomonas aeruginosa [20]): Dose-dependent-effect | fractional inhibitory concentration index (FICI) (Pseudomonas aeruginosa [21]): 0.29 | survival at 1000 µg/mL (Pseudomonas aeruginosa [22]): 0% | Activity (Pseudomonas aeruginosa [23]): Dose-dependent-effect | Activity (Pseudomonas aeruginosa [24]): Dose-dependent-effect | Activity (Pseudomonas aeruginosa [25]): No effect | Activity (Pseudomonas aeruginosa [26]): Dose-dependent-effect | Activity (Pseudomonas aeruginosa [27]): 64% | Activity [28]: Non-toxic | Activity [29]: Non-toxic | Activity (Pseudomonas aeruginosa [30]): 43% | Activity (Pseudomonas aeruginosa [31]): 38% | survival at 2.5 µM (Pseudomonas aeruginosa [32]): 0.45% | inhibition [33]: Active | Activity (Pseudomonas aeruginosa [34]): Dose-dependent-effect | Activity [35]: Non-toxic | Activity [36]: Non-toxic | Activity [37]: Non-toxic | Activity [38]: Non-toxic | Activity [39]: Non-toxic | Activity (Pseudomonas aeruginosa [40]): inactive | Activity (Pseudomonas aeruginosa [41]): 57%
